# Reference: US20050019372A1, “Modified-fat nutritional products useful preventing or treating obesity” (priority 2001, published 2005)
# Like-named read-outs stand apart in the source and are kept apart here.
# Tests used:
# [1] = test system: 3T3L1 fat cells; assay: TG storage and plasma membrane phospholipid fatty acid composition, oleate/linoleate with octanoate; format: cell-based
# Procedure: This reduced the cellular TG storage from 41.5 to 27.0 μg/μgDNA. The fatty acid composition in the plasma membrane phospholipids (FIG. 15) was less drastically affected by exogenous fatty acids than that in the TG fraction (FIG. 14).
# [2] = test system: 3T3-L1 fat cells; assay: Basal lipolysis and turnover of esterified fatty acids (glycerol release, NMR, GLC); format: cell-based; details: for 8:0 acyl chains in cellular TG: means ± S.E.M.; for [1-13C]fatty acid remaining esterified in TG: NMR, ±S.E.M.
# Procedure: Measurement of basal lipolysis. […] Control cultures were terminated at this time, and cells were homogenated for TG and DNA analysis. After aliquots were taken for these analyses, cellular lipids were extracted for NMR and GLC analysis. Parallel cultures were washed three times with PBS solution and incubated with serum-free DMEM containing 1% BSA, conditions that favour basal lipolysis. At the end of the incubation, media were aspirated and assayed for glycerol (Sigma procedure no. 337A [27]), and the cells were harvested for analysis as described above.
# Quantification of ^13C label incorporation into cellular TG from the NMR peak intensity. The ^13C-NMR spectra were obtained at 125 MHz on a Bruker DMX-500 spectrometer with a 5-mm triple resonance probe (Bilerica, Mass., U.S.A.). Other details have been described in our previous reports. The absolute intensities of ^13C═O signals were measured by reference to an internal standard. […] Therefore, the signal intensity from direct incorporation of [1-^13C]octanoate was obtained by subtracting the background signal from control.
# Methylation of TG and GLC analysis of fatty acyl composition. The lipid components of cell extracts were separated by TLC (hexane/ethyl ether/acetic acid, 70:30:1). Methylation was performed by incubation in BF3-methanol solution (14%, v/v, BF3 in methanol) at 60° C. for 30 min. The fatty acid methyl ester was extracted into a hexane solution. The hexane solution was dried with anhydrous sodium sulphate. To avoid the evaporation of methyl octanoate, the hexane solution was used directly for GLC study without further condensation. GLC analysis was performed on a Shimuzu 14A gas chromatograph with a Supelco SP™-2380 capillary column with an initial oven temperature of 150° C., final temperature of 240° C., heating rate of 4° C./min, injector temperature of 220° C. and detector temperature of 240° C. Carrier gas (He) was at 50 kPa, make-up carrier gas (He) at 100 kPa, hydrogen gas at 55 kPa and compressed air at 50 kPa. The sample was injected in 1-1.5 μl with splitting rate of 1:25.
# [3] = test system: 3T3-L1 adipocytes; assay: 13C-NMR incorporation of [1-13C]FFA into cellular TG; format: cell-based
# Procedure: Incubation with [1-^13C]FFA. […] At termination, cells were washed three times with an ice-cold solution (pH 7.4) containing sucrose (250 mM), Tris (10 mM) and 2-mercaptoethanol (1 mM), scraped into the above solution containing additional EDTA (0.2 mM) and homogenized. Aliquots of the homogenate were stored at −80° C. for DNA and TG analysis. Aliquots for glycerol-3-phosphate dehydrogenase (G3PD) analysis were centrifuged at 44000 g for 20 min and the supernatants were stored at −80° C. until analysis. The homogenates were then extracted for lipids for NMR studies as described previously.
# Quantification of ^13C label incorporation into cellular TG from the NMR peak intensity. The ^13C-NMR spectra were obtained at 125 MHz on a Bruker DMX-500 spectrometer with a 5-mm triple resonance probe (Bilerica, Mass., U.S.A.). Other details have been described in our previous reports. The absolute intensities of ^13C═O signals were measured by reference to an internal standard. […] For cells incubated with [1-^13C]octanoate, the signals from direct incorporation of [1-^13C]octanoate were less intense than the C═O signals from unlabelled TG (FIG. 1B; signals from unlabelled saturated acyl chains overlapped those of esterified [1-^13C]octanoate, but were generally 30-40% of their unsaturated counterparts in control cultures). Therefore, the signal intensity from direct incorporation of [1-^13C]octanoate was obtained by subtracting the background signal from control. This may not be completely accurate when octanoate incorporation is very limited.
# [4] = test system: 3T3-L1 adipocytes; assay: Partitioning of [1-14C]FFA between CO2 production and TG incorporation; format: cell-based; details: for Exogenous fatty acid converted into CO2 / Exogenous fatty acid converted into TG: 60 min, 1 mM fatty acid in 0.2 mM BSA, means ± S.E.M., n=3
# Procedure: Partitioning of [1-^14C]FFA between CO2production7 and TG incorporation. 3T3-L1 cells were prepared in T25 culture flasks. […] The incubation was terminated after 60 min. ^14CO2 released from fatty acid oxidation was collected and quantified using a published protocol. The cellular lipids were extracted and separated by TLC. The TG fraction was scraped off and dissolved in Ecosin-A solution for scintillation counting. […] Cellular DNA was measured in parallel cultures.
# [5] = test system: 3T3-L1 cells; assay: Fatty acid induced differentiation (cellular TG content, G3PD activity), no MDI; format: cell-based; details: for G3PD / TG: basal medium with insulin 2.5 μg/ml, no MDI, means ± S.E.M., n=3; for Cell loss after extended fatty acid incubation: microscopy, corroborated by DNA analysis; for Time after incubation at which lipid droplets began to appear: undifferentiated cells, not treated with MDI
# Procedure: Fatty acid induced differentiation. […] The 5:1 molar ratio of FFA/BSA promotes net transfer of FFA from BSA-binding sites to cells. No MDI treatment was applied to these cultures.
# Measurement of total cellular DNA, TG and G3PD activity. […] G3PD was measured by following the disappearance of NADH during enzyme-catalysed dihydroxyacetone phosphate reduction under zero-order conditions.
# [6] = 6 h intravenous infusion of octanoic acid, cited from earlier work
# [7] = replacement of 20% oleate by octanoate
# [8] = After 96 h incubation with DMEM (1% BSA)
# [9] = After 96 h incubation with DMEM (1% BSA), n=3
# [10] = Before 96 h incubation with DMEM (1% BSA)
# [11] = Before 96 h incubation with DMEM (1% BSA), n=3
# [12] = after 96-h incubation with DMEM, n=3
compound,measurement,setting,value
"CCCCCCCC(=O)O [Octanoate, octanoate]",Cellular TG storage,"[1]; oleate/linoleate, without or with 20% (wt %) of oleate replaced by octanoate",27.0 μg/μgDNA
same,Decrease in MUFA in plasma membrane phospholipids,[1]; [7],~15%
same,Increase in PUFA in plasma membrane phospholipids,[1]; [7],~20%
same,Increase in SFA in plasma membrane phospholipids,[1]; [7],~10%
same,"Absolute amount of octanoate remaining in TG, of original amount","[2]; 96 h, total TG content doubled",about 20%
same,14:0 acyl chains in cellular TG,[2]; [8],3.88 ± 0.21%
same,14:1 acyl chains in cellular TG,[2]; [8],5.78 ± 0.11%
same,15:0 acyl chains in cellular TG,[2]; [8],1.63 ± 0.17%
same,15:1 acyl chains in cellular TG,[2]; [8],1.41 ± 0.09%
same,16:0 acyl chains in cellular TG,[2]; [8],24.45 ± 0.03%
same,16:1 acyl chains in cellular TG,[2]; [8],47.64 ± 0.34%
same,17:0 acyl chains in cellular TG,[2]; [8],0.85 ± 0.096%
same,17:1 acyl chains in cellular TG,[2]; [8],4.73 ± 0.12%
same,18:0 acyl chains in cellular TG,[2]; [8],0.51 ± 0.16%
same,18:1 n9 acyl chains in cellular TG,[2]; [8],6.2 ± 0.29%
same,18:1 n11 acyl chains in cellular TG,[2]; [8],1.95 ± 0.13%
same,8:0 acyl chains in cellular TG,[2]; [9],0.99 ± 0.05%
same,14:0 acyl chains in cellular TG,[2]; [10],3.74 ± 0.04%
same,14:1 acyl chains in cellular TG,[2]; [10],5.56 ± 0.29%
same,15:0 acyl chains in cellular TG,[2]; [10],1.43 ± 0.14%
same,15:1 acyl chains in cellular TG,[2]; [10],1.4 ± 0.14%
same,16:0 acyl chains in cellular TG,[2]; [10],24.62 ± 0.35%
same,16:1 acyl chains in cellular TG,[2]; [10],38.61 ± 0.2%
same,17:0 acyl chains in cellular TG,[2]; [10],0.9 ± 0.03%
same,17:1 acyl chains in cellular TG,[2]; [10],3.89 ± 0.1%
same,18:0 acyl chains in cellular TG,[2]; [10],0.49 ± 0.02%
same,18:1 n9 acyl chains in cellular TG,[2]; [10],6.69 ± 0.09%
same,18:1 n11 acyl chains in cellular TG,[2]; [10],2.34 ± 0.05%
same,8:0 acyl chains in cellular TG,[2]; [11],10.33 ± 0.3%
same,[1-13C]fatty acid remaining esterified in TG,[2]; [12],About 21±1.2%
same,Proportion of octanoate in total stored fatty acids,[2]; [12],about 1±0.1%
same,"Octanoate incorporation, share of total acyl composition","[2]; before incubation with DMEM, n=3",10±0.9%
same,"Peak intensity ratio TG(1,3)/TG(2)",[3]; 2.0 = random access to the three glycerol carbons,higher than 2.0
same,"Octanoate share of total acyl chains stored, molar scale",[3]; converted to a molar scale,20%
same,Amount partitioned into de novo synthesis of LCFA,[3]; detected by 13C-NMR,less than 16%
same,"Saturated octanoate incorporation, share of total fatty acids stored",[3]; fat cells,about 10%
same,Time at which accumulation into TG reached a plateau,[3]; within a 24-h period,7 h
same,Actual amount of CO2 produced from octanoate relative to exogenous oleate,[4]; 8 vs 18 CO2 per acyl chain,about 3 fold
same,Exogenous fatty acid converted into CO2,[4],8.4 ± 1.2 nmol/h per μg of DNA
same,Exogenous fatty acid converted into TG,[4],0.9 ± 0.1 nmol/h per μg of DNA
same,G3PD,[5]; Day 6,0.09 ± 0.01 nmol/min per μg of DNA
same,TG,[5]; Day 6,0.1 ± 0.02 μg/μg of DNA
same,G3PD,[5]; Day 9,0.2 ± 0.01 nmol/min per μg of DNA
same,TG,[5]; Day 9,0.6 ± 0.04 μg/μg of DNA
same,Cell loss after extended fatty acid incubation,[5],less significant
same,Time after incubation at which lipid droplets began to appear,[5],6 days
same,Octanoate recovered as CO2,[6]; fasted rats,≤ 90%
same,Octanoate recovered as CO2,[6]; fed rats,up to 82%
"CCCCCCCC/C=C\CCCCCCCC(=O)O [Oleate, oleate, reference compound]",14:0 acyl chains in cellular TG,[2]; [8],3.28 ± 0.02%
same,14:1 acyl chains in cellular TG,[2]; [8],5.48 ± 0.03%
same,15:0 acyl chains in cellular TG,[2]; [8],1.36 ± 0.02%
same,15:1 acyl chains in cellular TG,[2]; [8],1.24 ± 0.09%
same,16:0 acyl chains in cellular TG,[2]; [8],23.65 ± 0.03%
same,16:1 acyl chains in cellular TG,[2]; [8],38.65 ± 0.2%
same,17:0 acyl chains in cellular TG,[2]; [8],0.75 ± 0.03%
same,17:1 acyl chains in cellular TG,[2]; [8],3.98 ± 0.07%
same,18:0 acyl chains in cellular TG,[2]; [8],0.41 ± 0.02%
same,18:1 n9 acyl chains in cellular TG,[2]; [8],19.71 ± 0.02%
same,18:1 n11 acyl chains in cellular TG,[2]; [8],1.51 ± 0.12%
same,8:0 acyl chains in cellular TG,[2]; [9],0%
same,14:0 acyl chains in cellular TG,[2]; [10],2.84 ± 0.09%
same,14:1 acyl chains in cellular TG,[2]; [10],4.75 ± 0.08%
same,15:1 acyl chains in cellular TG,[2]; [10],0.81 ± 0.01%
same,16:0 acyl chains in cellular TG,[2]; [10],20.01 ± 0.36%
same,16:1 acyl chains in cellular TG,[2]; [10],27.34 ± 0.29%
same,17:0 acyl chains in cellular TG,[2]; [10],0.82 ± 0.03%
same,17:1 acyl chains in cellular TG,[2]; [10],3.31 ± 0.26%
same,18:0 acyl chains in cellular TG,[2]; [10],0.38 ± 0.04%
same,18:1 n9 acyl chains in cellular TG,[2]; [10],36.4 ± 0.4%
same,18:1 n11 acyl chains in cellular TG,[2]; [10],1.35 ± 0.07%
same,8:0 acyl chains in cellular TG,[2]; [11],0%
same,Decline of proportion of oleate in cellular TG,"[2]; after 96-h incubation with DMEM, GLC",50%
same,[1-13C]fatty acid remaining esterified in TG,[2]; [12],over 99±3.3%
same,Exogenous fatty acid converted into CO2,[4],0.7 ± 0.1 nmol/h per μg of DNA
same,Exogenous fatty acid converted into TG,[4],7.6 ± 0.8 nmol/h per μg of DNA
same,G3PD,[5]; Day 6,0.45 ± 0.02 nmol/min per μg of DNA
same,TG,[5]; Day 6,1.7 ± 0.2 μg/μg of DNA
same,G3PD,[5]; Day 9,1.7 ± 0.1 nmol/min per μg of DNA
same,TG,[5]; Day 9,5.1 ± 0.3 μg/μg of DNA
same,Cell loss after extended fatty acid incubation,[5],~20%
same,Oleate share of accumulated TG,[5]; oleate-treated cells,> 80%
same,Time after incubation at which lipid droplets began to appear,[5],3 days
